Experimental data published in patent US9840481B2, “Allosteric modulators of nicotinic acetylcholine receptors” (MERCK SHARP & DOHME CORP., priority 2016, dated 2017).
Read-outs that look alike come from different tables or passages of the source.

Target: T1, human α7 nAChR stably expressed in a HEK cell line (with human RIC-3) (Homo sapiens, UniProt P36544)
T1 construct: PrecisION hnAChR α7/RIC-3
Experiment: Automated patch-clamp electrophysiology functional assay (Assay A), IonFlux HT, whole-cell population patch
Format: cell-based
Procedure, shortened: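 Whole-cell population patch clamp (IonFlux HT) used HEK cells stably co-expressing human α7 and RIC-3, held at −60 mV at room temperature. Compounds were applied alone (agonism) or with 40 μM acetylcholine (potentiation), three ascending concentrations per recording. Currents were quantified relative to a 40 μM acetylcholine reference response, giving EC50.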

[1] = automated patch-clamp electrophysiology functional assay (Assay A), potency class by EC50, read-out: α7 nAChR Potency
[2] = electrophysiology EC50, HEK cells expressing human α7/RIC-3, 40 μM acetylcholine, holding potential −60 mV, room temperature, read-out: α7 nAChR EC50

T1 sequence (P36544 23-502): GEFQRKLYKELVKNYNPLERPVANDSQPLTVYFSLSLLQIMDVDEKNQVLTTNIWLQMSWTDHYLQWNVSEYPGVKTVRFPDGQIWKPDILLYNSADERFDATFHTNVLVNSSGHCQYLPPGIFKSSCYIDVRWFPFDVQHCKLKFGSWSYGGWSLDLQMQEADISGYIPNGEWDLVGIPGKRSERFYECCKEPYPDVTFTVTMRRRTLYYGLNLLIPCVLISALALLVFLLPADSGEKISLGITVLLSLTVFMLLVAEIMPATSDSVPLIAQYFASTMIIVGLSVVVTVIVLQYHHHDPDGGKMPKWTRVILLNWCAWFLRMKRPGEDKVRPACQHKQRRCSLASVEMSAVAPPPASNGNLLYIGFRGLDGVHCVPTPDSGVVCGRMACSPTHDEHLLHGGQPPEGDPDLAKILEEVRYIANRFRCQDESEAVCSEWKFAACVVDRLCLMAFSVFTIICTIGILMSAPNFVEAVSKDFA

For `CC1(C)[C@@H](c2ccc(S(N)(=O)=O)cc2)[C@@H]1c1noc(-c2c(F)ccc(F)c2F)n1` [Example 3, 4-((1S,3S)-2,2-Dimethyl-3-(5-(2,3,6-trifluorophenyl)-1,2,4-oxadiazol-3-yl)cyclopropyl) benzenesulfonamide], the EC50 [1] was ≤ 0.1 µM and the EC50 [2] was 0.083 µM.

`CC1(C)[C@H](c2ccc(S(N)(=O)=O)cc2)[C@H]1c1nnc(-c2cc(F)ccc2C(F)(F)F)o1` [Example F2] was tested, and the EC50 [1] was 0.5 to 5 µM.

In the case of `CC1(C)[C@H](c2ccc(S(N)(=O)=O)cc2)[C@H]1c1nc(-c2ccc(F)cc2F)no1` [Example A7], the EC50 [1] is reported as 0.5 to 5 µM and the EC50 [2] is reported as 1.3 µM.

For `CC1(C)[C@@H](c2ccc(S(N)(=O)=O)cc2)[C@@H]1c1nnc(-c2ccc(F)cc2F)o1` [Example 6, 4-{(1S,3S)-3-[5-(2,4-Difluorophenyl)-1,3,4-oxadiazol-2-yl]-2,2-dimethylcyclopropyl}benzenesulfonamide], the EC50 [1] was 0.5 to 5 µM and the EC50 [2] was 1.1 µM.

In the case of `NS(=O)(=O)c1ccc([C@@H]2C[C@H]2c2nc(-c3cccc(F)c3F)no2)cc1` [Example C15], the EC50 [1] is reported as 0.1 to 0.5 µM and the EC50 [2] is reported as 0.34 µM.

In the case of `CC1(C)[C@H](c2ccc(S(N)(=O)=O)cc2)[C@H]1c1cnn(-c2cccc(F)c2)c1` [Example 13, 4-{(1R,3R)-3-[1-(3-Fluorophenyl)-1H-pyrazol-4-yl]-2,2-dimethylcyclopropyl}benzenesulfonamide], the EC50 [1] is reported as 0.1 to 0.5 µM and the EC50 [2] is reported as 0.34 µM.

For `CC1C(c2ccc(S(N)(=O)=O)cc2)C1c1nc(-c2ccccc2)no1` (single isomer, unassigned) [Example M2], the EC50 [1] was 0.5 to 5 µM and the EC50 [2] was 1.7 µM.

In the case of `CC1(C)[C@@H](c2ccc(S(N)(=O)=O)cc2)[C@@H]1c1noc(C2CCc3cc(F)ccc32)n1` (some centres unmarked) [Example I3], the EC50 [1] is reported as ≤ 0.1 µM and the EC50 [2] is reported as 0.096 µM.

In the case of `NS(=O)(=O)c1ccc([C@H]2[C@H](c3nc(C4CCCCC4)cs3)C2(F)F)cc1` [Example K19], the EC50 [1] is reported as 0.1 to 0.5 µM and the EC50 [2] is reported as 0.16 µM.

In the case of `Cc1sc([C@@H]2C[C@H]2c2ccc(S(N)(=O)=O)cc2)nc1-c1ccccc1` [Example 15, 4-[(1R,2R)-2-(5-Methyl-4-phenyl-1,3-thiazol-2-yl)cyclopropyl]benzenesulfonamide], the EC50 [1] is reported as ≤ 0.1 µM and the EC50 [2] is reported as 0.071 µM.

In the case of `Cc1ncccc1-c1noc([C@H]2C[C@@H]2c2ccc(S(N)(=O)=O)cc2)n1` [Example B6], the EC50 [1] is reported as 5 to 50 µM and the EC50 [2] is reported as 7.7 µM.

`CC1(C)[C@H](c2ccc(S(N)(=O)=O)cc2)[C@H]1c1cn(-c2cccc(F)c2)nn1` [Example L5] showed an EC50 [1] of 0.5 to 5 µM and an EC50 [2] of 0.77 µM.

Work on `CC1(C)[C@@H](c2ccc(S(N)(=O)=O)cc2)[C@@H]1c1nc(C2CCC2)no1` [Example D7] yielded an EC50 [1] of 0.1 to 0.5 µM.

`CC1(C)[C@@H](c2ccc(S(N)(=O)=O)cc2)[C@@H]1c1nc(C2(C(F)(F)F)CC2)no1` [Example D33] showed an EC50 [1] of 0.1 to 0.5 µM and an EC50 [2] of 0.21 µM.

Work on `CC1(C)[C@H](c2ccc(S(N)(=O)=O)cc2)[C@H]1c1cn(-c2ccccc2)nn1` [Example 12, 4-[(1R,3R)-2,2-Dimethyl-3-(1-phenyl-1H-1,2,3-triazol-4-yl)cyclopropyl]benzenesulfonamide] yielded an EC50 [1] of 0.5 to 5 µM and an EC50 [2] of 0.91 µM.

For `Cn1cc([C@H]2[C@H](c3ccc(S(N)(=O)=O)cc3)C2(C)C)nc1-c1cccc(F)c1` [Example 35, 4-{(1S,3S)-3-[2-(3-Fluorophenyl)-1-methyl-1H-imidazol-4-yl]-2,2-dimethylcyclopropyl}benzenesulfonamide], the EC50 [1] was 0.5 to 5 µM and the EC50 [2] was 4.4 µM.

For `NS(=O)(=O)c1ccc([C@@H]2C[C@H]2c2ncc(-c3ccccc3)o2)cc1` [Example 8, 4-[(1R,2R)-2-(5-Phenyl-1,3-oxazol-2-yl)cyclopropyl]benzenesulfonamide], the EC50 [1] was 0.1 to 0.5 µM and the EC50 [2] was 0.5 µM.

`CC1(C)[C@H](c2ccc(S(N)(=O)=O)cc2)[C@H]1c1nc(-c2cccc(Br)c2)no1` [Example A14] was tested, and the EC50 [1] was 0.5 to 5 µM.

`NS(=O)(=O)c1ccc([C@@H]2[C@@H](c3nsc(-c4ccccc4)n3)C2(F)F)cc1` [Example L13] showed an EC50 [1] of 0.5 to 5 µM and an EC50 [2] of 0.74 µM.

In the case of `CC1(C)[C@@H](c2ccc(S(N)(=O)=O)cc2)[C@@H]1c1nnc(-c2c(F)cccc2C(F)(F)F)o1` [Example G17], the EC50 [1] is reported as 0.5 to 5 µM and the EC50 [2] is reported as 0.95 µM.

`CC1(C)[C@@H](c2ccc(S(C)(=O)=O)cc2)[C@@H]1c1nc(-c2ccccc2)no1` (relative stereo) [Example 33] showed an EC50 [1] of 0.5 to 5 µM and an EC50 [2] of 1.1 µM.

In the case of `CC1(C)[C@@H](c2ccc(S(N)(=O)=O)cc2)[C@@H]1c1nc(C2CCCCC2)no1` [Example D3], the EC50 [1] is reported as 0.1 to 0.5 µM and the EC50 [2] is reported as 0.15 µM.

`NS(=O)(=O)c1ccc([C@@H]2C[C@H]2c2nc(-c3ccc(F)cc3)no2)cc1` [Example C14] was tested, and the EC50 [1] was ≤ 0.1 µM and the EC50 [2] was 0.093 µM.

`NS(=O)(=O)c1ccc(C2C(c3nc(-c4ccccc4)no3)C23CCCC3)cc1` (single isomer, unassigned) [Example M3] was tested, and the EC50 [1] was ≤ 0.1 µM and the EC50 [2] was 0.083 µM.

`COc1ccc(Cl)cc1-c1noc([C@H]2[C@H](c3ccc(S(N)(=O)=O)cc3)C2(C)C)n1` [Example C1] gave an EC50 [1] of 5 to 50 µM.

`CC1(C)[C@@H](c2ccc(S(N)(=O)=O)cc2)[C@@H]1c1cc(-c2ccccc2)no1` [Example L4] was tested, and the EC50 [1] was 0.5 to 5 µM and the EC50 [2] was 0.64 µM.

Work on `CC1(C)[C@@H](c2ccc(S(N)(=O)=O)cc2)[C@@H]1c1nc(CC2CC2)no1` [Example D27] yielded an EC50 [1] of 0.1 to 0.5 µM and an EC50 [2] of 0.2 µM.

`CC1(C)[C@@H](c2ccc(S(N)(=O)=O)cc2)[C@@H]1c1noc(-c2cc(C(F)(F)F)c3ccccc3n2)n1` [Example I13] was tested, and the EC50 [1] was 0.5 to 5 µM and the EC50 [2] was 3.1 µM.

With `NS(=O)(=O)c1ccc([C@@H]2C[C@H]2c2noc(N3CCCCC3)n2)cc1` [Example 37, 4-{(1R,2R)-2-[5-(Piperidin-1-yl)-1,2,4-oxadiazol-3-yl]cyclopropyl}benzenesulfonamide] the EC50 [1] was 0.1 to 0.5 µM and the EC50 [2] was 0.24 µM.

`CC1(C)[C@H](c2ccc(S(N)(=O)=O)cc2)[C@H]1c1nc(-c2ccccc2)no1` [Example A3] was tested, and the EC50 [1] was 0.5 to 5 µM.

For `CC1(C)[C@@H](c2ccc(S(N)(=O)=O)cc2)[C@@H]1c1nc(-c2ccccn2)no1` [Example D4], the EC50 [1] was 5 to 50 µM and the EC50 [2] was 6.8 µM.

Compound `NS(=O)(=O)c1ccc([C@@H]2C[C@H]2c2nnc(C3CCCC3)s2)cc1` [Example G16] has an EC50 [1] of 0.5 to 5 µM.

`CC1(C)[C@H](c2ccc(S(N)(=O)=O)cc2)[C@H]1c1nc(-c2cncc(F)c2)no1` [Example B2] was tested, and the EC50 [1] was 0.5 to 5 µM.

`CC1(C)[C@@H](c2ccc(S(N)(=O)=O)cc2)[C@@H]1c1noc(-c2ccc(OCCF)nc2)n1` [Example I14] gave an EC50 [1] of 0.5 to 5 µM.

`CC1(C)[C@@H](c2ccc(S(N)(=O)=O)cc2)[C@@H]1c1noc(CCC2CC2)n1` [Example I33] gave an EC50 [1] of 0.5 to 5 µM.

With `CC1(C)[C@@H](c2ccc(S(N)(=O)=O)cc2)[C@@H]1c1nc(-c2cncc(C(F)(F)F)c2)no1` [Example D17] the EC50 [1] was 0.5 to 5 µM and the EC50 [2] was 2.3 µM.

For `CC1(C)[C@@H](c2ccc(S(N)(=O)=O)cc2)[C@@H]1c1noc(-c2cccnc2C(F)(F)F)n1` [Example I21], the EC50 [1] was 0.5 to 5 µM.

For `NS(=O)(=O)c1ccc([C@H]2[C@H](c3ncc(C4CCCC4)o3)C2(F)F)cc1` [Example K13], the EC50 [1] was 0.1 to 0.5 µM and the EC50 [2] was 0.39 µM.

`CC1(C)[C@@H](c2ccc(S(N)(=O)=O)cc2)[C@@H]1c1noc(-c2cccc(F)c2)n1` [Example H5] showed an EC50 [1] of 0.5 to 5 µM and an EC50 [2] of 1.5 µM.

Work on `CC1(C)[C@@H](c2ccc(S(N)(=O)=O)cc2)[C@@H]1c1noc(C2(c3cc(F)ccc3F)CCC2)n1` [Example I4] yielded an EC50 [1] of 0.1 to 0.5 µM and an EC50 [2] of 0.17 µM.

`NS(=O)(=O)c1ccc(C2CC2c2nc(-c3cccc(F)c3)ns2)cc1` (single isomer, unassigned) [Example M4] gave an EC50 [1] of 0.1 to 0.5 µM and an EC50 [2] of 0.21 µM.

`NS(=O)(=O)c1ccc([C@@H]2C[C@H]2c2cnc(C3CCCCC3)o2)cc1` [Example 28, 4-[(1R,2R)-2-(2-Cyclohexyl-1,3-oxazol-5-yl)cyclopropyl]benzenesulfonamide] showed an EC50 [1] of 0.1 to 0.5 µM and an EC50 [2] of 0.46 µM.

Work on `CC1(C)[C@@H](c2ccc(S(N)(=O)=O)cc2)[C@@H]1c1noc(C2CCCCC23CC3)n1` (some centres unmarked) [Example I27] yielded an EC50 [1] of 0.1 to 0.5 µM.

With `CC1(C)[C@@H](c2ccc(S(N)(=O)=O)cc2)[C@@H]1c1cn(-c2ccccc2)nn1` [Example L7] the EC50 [1] was 0.5 to 5 µM.

`COc1ccc(Cl)cc1-c1noc([C@@H]2[C@@H](c3ccc(S(N)(=O)=O)cc3)C2(C)C)n1` [Example A1] was tested, and the EC50 [1] was 0.5 to 5 µM and the EC50 [2] was 2.9 µM.

Compound `Cc1ncccc1-c1noc([C@H]2[C@H](c3ccc(S(N)(=O)=O)cc3)C2(C)C)n1` [Example D15] has an EC50 [1] of 0.5 to 5 µM.

`CC(C)c1noc([C@H]2[C@H](c3ccc(S(N)(=O)=O)cc3)C2(F)F)n1` [Example D1] gave an EC50 [1] of 0.1 to 0.5 µM and an EC50 [2] of 0.12 µM.

Compound `NS(=O)(=O)c1ccc([C@@H]2C[C@H]2c2noc(-c3cccc(F)c3)n2)cc1` [Example H15] has an EC50 [1] of 0.1 to 0.5 µM and an EC50 [2] of 0.19 µM.

`CC1(C)[C@@H](c2ccc(S(N)(=O)=O)cc2)[C@@H]1c1noc(-c2cnccc2C(F)(F)F)n1` [Example I20] gave an EC50 [1] of 0.1 to 0.5 µM.

`Cc1cccc(F)c1-c1nc([C@H]2[C@H](c3ccc(S(N)(=O)=O)cc3)C2(C)C)no1` [Example H6] showed an EC50 [1] of 0.1 to 0.5 µM.

With `CC1(C)[C@@H](c2ccc(S(N)(=O)=O)cc2)[C@@H]1c1noc(C(O)C(F)(F)F)n1` (some centres unmarked) [Example I28] the EC50 [1] was 0.5 to 5 µM.

With `CC1(C)[C@@H](c2ccc(S(N)(=O)=O)cc2)[C@@H]1c1noc(-c2cscn2)n1` [Example I6] the EC50 [1] was 0.5 to 5 µM.

In the case of `NS(=O)(=O)c1ccc([C@@H]2C[C@H]2c2nsc(-c3cccc(F)c3)n2)cc1` [Example L10], the EC50 [1] is reported as ≤ 0.1 µM and the EC50 [2] is reported as 0.088 µM.

In the case of `CC1(C)[C@@H](c2ccc(S(N)(=O)=O)cc2)[C@@H]1c1noc(-c2cccc(C3CC3)c2)n1` [Example H9], the EC50 [1] is reported as 0.5 to 5 µM and the EC50 [2] is reported as 1.4 µM.

`CC1(C)[C@@H](c2ccc(S(N)(=O)=O)cc2)[C@@H]1c1noc(-c2ccncc2C(F)(F)F)n1` [Example I19] gave an EC50 [1] of 0.1 to 0.5 µM.
